The values that follow come from paper PMC8096218, “Global RNA profiles show target selectivity and physiological effects of peptide-delivered antisense antibiotics” (Nucleic Acids Research, 2021).

Test [1] has as its system wild-type (wt) Salmonella enterica serovar Typhimurium strain SL1344. As to conditions: for MIC: non-cation-adjusted MHB, 37°C, 24 h; for MIC in μM, SL1344 wt: Table 3, three biological replicates. On the procedure: MIC values were determined by broth microdilution according to standard protocols with a few modifications ([26]). An overnight bacterial cell culture, supplemented with the appropriate antibiotic when needed, was diluted 1:100 in fresh MHB and grown to OD600 0.5. The obtained culture was diluted to ∼10^5 cfu/ml or 10^6 cfu/ml, as indicated, in non-cation-adjusted MHB. Subsequently, 190 μl bacterial solution was dispensed into a 96-well plate (Thermo Fisher Scientific) along with 10 μl of a 20x PPNA, PNA or peptide working solution. Growth was monitored by measuring the OD at 600 nm every 20 min in a Synergy H1 plate reader (Biotek) with continuous double-orbital shaking (237 cpm) at 37°C for 24 h.

Test [2] concerns Salmonella wt. As to the kind of experiment: Kinetics of bactericidal effects (cfu determination and spot assay). The format is cell-based, Salmonella enterica serovar Typhimurium. As to conditions: ∼10^6 cfu/ml, 5 μM KFF-acpP, 5 μM RXR-acpP, 10 μM Tat-acpP versus scrambled counterparts; for time post treatment from which killing / reduced cfu/ml was visible: time points 15, 20, 40, 60, 120 min, performed three times. Here is the method:
An overnight bacterial cell culture was diluted 1:100 in fresh MHB and grown to OD600 0.5. The obtained culture was diluted to approximately 10^6 cfu/ml in non-cation-adjusted MHB. Afterwards, aliquots of 10 μl were directly used as input condition for cfu determination and spot assay on LB agar plates. Regarding the latter, serial dilutions were prepared as indicated, to evaluate the alteration of living bacteria upon exposure to the different PPNAs. At the same time, 190 μl of this bacterial solution was placed into 2 ml eppendorf tubes along with 10 μl of a 20× on-target or scrambled PPNA solution, adjusting the indicated MICs. At the indicated time points post treatment, aliquots were used for cfu determination and spot assay.
Figure 3. Kinetics of bactericidal effects for (A) 5 μM KFF-acpP versus 5 μM KFF-acpP-scr, (B) 5 μM RXR-acpP versus 5 μM RXR-acpP-scr and (C) 10 μM Tat-acpP versus 10 μM Tat-acpP-scr against Salmonella wt (∼10^6 cfu/ml). After the indicated time points post treatment (15, 20, 40, 60, 120 min), aliquots of each sample were harvested to determine the number of viable cells over time (cfu/ml […]; left panels). Additional aliquots were subjected to spot assays on LB agar plates, including the indicated dilutions (right panels). The experiment was performed three times. Error bars indicate standard error of the mean.

Test [3] relates to fabF mRNA. As to the kind of experiment: RNA-seq differential expression, second gene of the dicistron. As to conditions: edgeR, versus water; 15 min; 5 μM KFF-/RXR-constructs, 10 μM Tat-constructs; triplicates. The class given is cell-based, Salmonella enterica serovar Typhimurium. On the procedure: Bacterial overnight cultures were diluted 1:100 in fresh MHB and grown to OD600 0.5. The obtained cultures were diluted to ∼10^6 cfu/ml in non-cation-adjusted MHB. Afterward, the bacterial solution was transferred into low-binding 5 ml tubes (LABsolute) along with the 20× PNA, peptide or PPNA solution. The final concentrations were 5 μM for KFF- and RXR-PNAs, and 10 μM for Tat-PNAs. Equimolar concentrations were used for the respective peptide control conditions. As a negative control, cells were treated with the respective volume of sterile nuclease-free water, which was used as solvent for the test compounds. […]
DNase treatment, cDNA library preparation and sequencing was conducted at Vertis (Munich, Germany). […] The cDNA was purified using the Agencourt AMPure XP kit (Beckman Coulter Genomics) and was analyzed by capillary electrophoresis. […] The cDNA pool was sequenced on an Illumina NextSeq 500 system using 75 bp read length.
Reads from the RNA-Seq experiments were trimmed, filtered and mapped against the S. enterica subsp. enterica serovar Typhimurium SL1344 reference genome and the three plasmids pSLT_SL1344, pCol1B9_SL1344 (other name is p2), and pRSF1010_SL1344 ([19]). […]
All downstream analysis was performed using packages from the R/Bioconductor project. The raw read counts were imported and analyzed with edgeR (v3.30.0). […]

[4] abbreviates: Table 1, ∼10^5 cfu/ml, lowest concentration with OD600 < 0.1.
The mark [5] stands for this setting: Table 2, ∼10^6 cfu/ml, performed three times.

Broadly, the MIC is the least concentration at which growth counts as inhibited.

Like-named read-outs stand apart in the source and are kept apart here. Where only a bound is given, the exact number is not on record here.

For “RXRRXRRXRRXRXB [RXR-acpP, RXR peptide conjugated to 10-mer antisense PNA against acpP]”, the “MIC” value amounted to 11 µg/mL in test [1] (Table 1, ∼10^5 cfu/ml); 2.5 µM in test [1] (setting [4]); 5 µM in test [1] (setting [5]). The “MIC in μM, SL1344 wt” value in test [1] (∼10^5 cfu/ml) is 2.5 µM. Further, the “bactericidal effects (cfu/ml, spot assay)” value (“bactericidal effects” below) in test [2] was “fast and strong killing”. In test [2], the “time post treatment from which killing / reduced cfu/ml was visible” value is on record as ≥ 15 min.
As to “KFFKFFKFFK [KFF-acpP, KFF peptide conjugated to 10-mer antisense PNA against the translational start site of acpP]”, the “MIC” value came to 5 µg/mL in test [1] (Table 1, ∼10^5 cfu/ml); 1.25 µM in test [1] (setting [4]); 5 µM in test [1] (setting [5]). In addition, the “MIC in μM, SL1344 wt” value in test [1] (∼10^5 cfu/ml) was determined as 1.25 µM. Also, the “bactericidal effects” value in test [2] was “fast and strong killing”. In addition, in test [2], the “time post treatment from which killing / reduced cfu/ml was visible” value was ≥ 15 min. Further, in test [3], the “logFC fabF” value was -1.1555.
With “GRKKKRRQRRRYK [Tat-acpP, Tat peptide conjugated to 10-mer antisense PNA against acpP]”, the “MIC” value is 22 µg/mL in test [1] (Table 1, ∼10^5 cfu/ml); 5 µM in test [1] (setting [4]); 10 µM in test [1] (setting [5]). Also, the “MIC in μM, SL1344 wt” value in test [1] (∼10^5 cfu/ml) was 5 µM. In addition, in test [2], the “bactericidal effects” value was “time-delayed and less pronounced”. Also, the “time post treatment from which killing / reduced cfu/ml was visible” value in test [2] is recorded as ≥ 40 min.
